Literature values as cited in US20240245685A1, “PHOSPHODIESTERASE-5 INHIBITOR COMBINATIONS, METHODS OF MAKING, AND METHODS OF USE THEREOF” (VK Research Associates Inc, priority 2020, published 2024).
Like-named read-outs stand apart in the source and are kept apart here. Blank lines part the entries; values can stand above or below the molecule they belong to.

Assays:
[1] = for median time to maximum concentration (t max): oral administration
[2] = not given; remark: listed apart in the source
[3] = oral tadalafil therapy

absorption profile when administered with a high-fat meal [1]: not found
Structure (SMILES): COc1ccc(CN=c2[nH]c(N3CCC[C@H]3CO)ncc2C(=O)NCc2ncccn2)cc1Cl [avanafil]

median time to maximum concentration (t max) [1]: 1 h
Structure (SMILES): CCCc1nn(C)c2c(=O)[nH]c(-c3cc(S(=O)(=O)N4CCN(C)CC4)ccc3OCC)nc12 [sildenafil]

Structure (SMILES): CN1CC(=O)N2[C@H](c3ccc4c(c3)OCO4)c3[nH]c4ccccc4c3C[C@@H]2C1=O [tadalafil]
absorption profile when administered with a high-fat meal [1]: not found
Dyspepsia incidence (tadalafil 5 mg): 4%
Headache incidence (tadalafil 5 mg): 11%
Dyspepsia incidence (tadalafil 10 mg): 8%
Headache incidence (tadalafil 10 mg): 11%
Dyspepsia incidence (tadalafil 20 mg): 10%
Headache incidence (tadalafil 20 mg): 15%
Dyspepsia Duration ([2]; maximum doses): 15.5 h
Dyspepsia Mean Duration ([2]; maximum doses): 11.2 h
Headache Duration ([2]; maximum doses): 24.3 h
Headache Mean Duration ([2]; maximum doses): 17.0 h
duration of side effects versus sildenafil ([2]; patients taking tadalafil versus sildenafil): more prolonged
frequency of headache and dyspepsia versus sildenafil ([2]; tadalafil versus sildenafil): more common
duration of delayed onset side effects, e.g. gastritis and back pain [3]: up to 3 hours

median time to maximum concentration (t max) [1]: 1 h
Structure (SMILES): CCCc1nc(C)c2c(=O)[nH]c(-c3cc(S(=O)(=O)N4CCN(CC)CC4)ccc3OCC)nn12 [vardenafil]
